Common to all, as to assay: DSF Tm panel
What all share (format): binding
What all share (settings): 10 μM compound

The target of one assay is T1, STK3 (STK3A) (Homo sapiens, UniProt Q13188).
T1 construct: purchased in-house DSF kinase panel (SGC-style construct names; the trailing letter is the construct ID)
T1 sequence (Q13188 16-313): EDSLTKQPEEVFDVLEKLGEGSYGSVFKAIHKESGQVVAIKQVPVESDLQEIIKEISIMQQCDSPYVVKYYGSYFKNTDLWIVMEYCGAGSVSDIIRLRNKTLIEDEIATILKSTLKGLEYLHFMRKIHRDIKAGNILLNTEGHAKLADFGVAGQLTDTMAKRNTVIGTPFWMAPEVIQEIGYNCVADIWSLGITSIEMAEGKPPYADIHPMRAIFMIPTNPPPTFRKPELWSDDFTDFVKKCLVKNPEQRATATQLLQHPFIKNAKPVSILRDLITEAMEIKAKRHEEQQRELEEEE

The next assay concerns the target T2, DYRK2A (Homo sapiens, UniProt Q92630).
T2 construct: purchased in-house DSF kinase panel (SGC-style construct names; the trailing letter is the construct ID)
T2 sequence (Q92630 1-601): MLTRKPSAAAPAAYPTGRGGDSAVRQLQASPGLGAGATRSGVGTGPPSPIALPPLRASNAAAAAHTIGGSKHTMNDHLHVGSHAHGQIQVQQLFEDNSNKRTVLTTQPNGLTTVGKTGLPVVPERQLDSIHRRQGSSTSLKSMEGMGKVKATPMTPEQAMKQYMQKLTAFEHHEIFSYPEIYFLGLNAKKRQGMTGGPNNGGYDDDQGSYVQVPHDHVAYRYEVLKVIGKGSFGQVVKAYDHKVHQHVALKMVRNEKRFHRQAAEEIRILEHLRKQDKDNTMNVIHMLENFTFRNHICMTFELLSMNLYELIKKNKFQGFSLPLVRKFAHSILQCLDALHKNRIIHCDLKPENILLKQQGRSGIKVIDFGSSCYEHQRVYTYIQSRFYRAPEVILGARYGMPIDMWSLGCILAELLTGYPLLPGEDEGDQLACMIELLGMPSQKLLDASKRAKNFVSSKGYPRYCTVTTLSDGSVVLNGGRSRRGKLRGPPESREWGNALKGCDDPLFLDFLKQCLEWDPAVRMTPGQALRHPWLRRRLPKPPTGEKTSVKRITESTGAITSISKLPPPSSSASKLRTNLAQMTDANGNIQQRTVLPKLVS

In the next assay the target is T3, DAPK3 (DAPK3A) (Homo sapiens, UniProt O43293).
T3 construct: purchased in-house DSF kinase panel (SGC-style construct names; the trailing letter is the construct ID)
T3 sequence (O43293 whole entry): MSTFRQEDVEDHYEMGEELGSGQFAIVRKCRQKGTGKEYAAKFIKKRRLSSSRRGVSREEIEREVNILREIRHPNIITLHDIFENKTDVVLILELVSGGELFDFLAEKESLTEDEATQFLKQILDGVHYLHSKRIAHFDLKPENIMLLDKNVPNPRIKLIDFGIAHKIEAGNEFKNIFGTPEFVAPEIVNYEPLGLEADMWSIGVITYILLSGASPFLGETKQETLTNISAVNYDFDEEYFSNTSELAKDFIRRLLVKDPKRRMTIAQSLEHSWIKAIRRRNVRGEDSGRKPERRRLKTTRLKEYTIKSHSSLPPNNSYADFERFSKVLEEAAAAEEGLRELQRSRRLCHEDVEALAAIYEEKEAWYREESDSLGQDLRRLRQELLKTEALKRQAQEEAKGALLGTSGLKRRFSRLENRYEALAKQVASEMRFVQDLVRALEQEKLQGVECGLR

In another assay the target is T4, PCTK1A (Homo sapiens, UniProt Q00536).
T4 construct: purchased in-house DSF kinase panel (SGC-style construct names; the trailing letter is the construct ID)
T4 sequence (Q00536 163-478): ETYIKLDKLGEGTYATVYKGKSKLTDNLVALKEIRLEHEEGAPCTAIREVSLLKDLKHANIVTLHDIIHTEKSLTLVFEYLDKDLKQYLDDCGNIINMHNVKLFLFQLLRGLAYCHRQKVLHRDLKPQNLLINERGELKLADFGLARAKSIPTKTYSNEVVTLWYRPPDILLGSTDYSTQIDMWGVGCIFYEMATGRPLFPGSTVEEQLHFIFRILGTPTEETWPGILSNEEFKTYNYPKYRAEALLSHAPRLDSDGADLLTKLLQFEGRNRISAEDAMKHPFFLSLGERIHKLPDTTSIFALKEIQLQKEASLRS

The target of the next assay is T5, EPHB3A (Homo sapiens, UniProt P54753).
T5 construct: purchased in-house DSF kinase panel (SGC-style construct names; the trailing letter is the construct ID)
T5 sequence (P54753 34-998): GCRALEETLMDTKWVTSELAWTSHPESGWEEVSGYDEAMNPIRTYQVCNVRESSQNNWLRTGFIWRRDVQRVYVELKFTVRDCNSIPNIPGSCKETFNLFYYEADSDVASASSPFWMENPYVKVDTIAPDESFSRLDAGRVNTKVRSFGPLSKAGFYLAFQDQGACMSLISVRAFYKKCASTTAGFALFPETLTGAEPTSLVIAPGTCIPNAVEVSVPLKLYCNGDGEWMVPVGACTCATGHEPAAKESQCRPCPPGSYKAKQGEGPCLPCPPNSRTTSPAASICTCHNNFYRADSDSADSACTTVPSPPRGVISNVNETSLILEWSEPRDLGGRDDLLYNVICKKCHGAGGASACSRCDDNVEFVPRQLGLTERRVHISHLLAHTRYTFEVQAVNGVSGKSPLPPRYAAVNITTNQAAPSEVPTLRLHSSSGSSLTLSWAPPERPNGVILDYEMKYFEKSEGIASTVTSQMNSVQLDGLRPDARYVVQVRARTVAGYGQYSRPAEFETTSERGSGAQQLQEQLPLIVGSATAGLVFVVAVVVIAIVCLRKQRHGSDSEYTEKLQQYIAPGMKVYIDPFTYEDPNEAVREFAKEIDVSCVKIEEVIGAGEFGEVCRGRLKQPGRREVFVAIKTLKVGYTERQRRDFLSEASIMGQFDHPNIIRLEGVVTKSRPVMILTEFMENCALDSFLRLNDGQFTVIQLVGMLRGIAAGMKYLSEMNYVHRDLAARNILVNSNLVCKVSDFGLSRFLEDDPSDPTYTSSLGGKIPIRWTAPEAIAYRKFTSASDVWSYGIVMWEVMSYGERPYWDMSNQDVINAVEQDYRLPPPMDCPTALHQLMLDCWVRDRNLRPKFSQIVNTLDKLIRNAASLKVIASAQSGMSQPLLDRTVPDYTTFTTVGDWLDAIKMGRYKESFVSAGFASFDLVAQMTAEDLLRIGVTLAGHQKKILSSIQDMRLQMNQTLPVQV

The next assay deals with T6, CSNK1DA (Homo sapiens, UniProt P48730).
T6 construct: purchased in-house DSF kinase panel (SGC-style construct names; the trailing letter is the construct ID)
T6 sequence (P48730 1-294): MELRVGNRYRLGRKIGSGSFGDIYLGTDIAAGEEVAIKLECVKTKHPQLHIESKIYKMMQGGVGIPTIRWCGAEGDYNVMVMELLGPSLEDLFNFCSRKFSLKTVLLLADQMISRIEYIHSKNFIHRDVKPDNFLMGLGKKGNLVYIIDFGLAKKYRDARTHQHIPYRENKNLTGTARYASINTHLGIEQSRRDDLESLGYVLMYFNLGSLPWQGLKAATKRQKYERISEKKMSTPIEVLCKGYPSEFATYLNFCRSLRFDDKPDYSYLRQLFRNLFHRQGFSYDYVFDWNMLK

A further assay has as its target T7, PKMYT1A (Homo sapiens, UniProt Q99640).
T7 construct: purchased in-house DSF kinase panel (SGC-style construct names; the trailing letter is the construct ID)
T7 sequence (Q99640 75-362): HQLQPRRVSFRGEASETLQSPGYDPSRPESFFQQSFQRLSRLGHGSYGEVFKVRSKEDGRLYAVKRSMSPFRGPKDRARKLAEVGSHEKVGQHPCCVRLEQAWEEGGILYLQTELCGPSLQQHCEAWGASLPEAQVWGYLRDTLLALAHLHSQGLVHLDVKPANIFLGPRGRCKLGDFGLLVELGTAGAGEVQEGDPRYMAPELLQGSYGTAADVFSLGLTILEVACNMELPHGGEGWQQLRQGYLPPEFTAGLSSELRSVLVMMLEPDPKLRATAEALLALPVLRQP

The next assay has as its target T8, CDKL1A (Homo sapiens, UniProt Q00532).
T8 construct: purchased in-house DSF kinase panel (SGC-style construct names; the trailing letter is the construct ID)

T8 sequence (Q00532 1-303): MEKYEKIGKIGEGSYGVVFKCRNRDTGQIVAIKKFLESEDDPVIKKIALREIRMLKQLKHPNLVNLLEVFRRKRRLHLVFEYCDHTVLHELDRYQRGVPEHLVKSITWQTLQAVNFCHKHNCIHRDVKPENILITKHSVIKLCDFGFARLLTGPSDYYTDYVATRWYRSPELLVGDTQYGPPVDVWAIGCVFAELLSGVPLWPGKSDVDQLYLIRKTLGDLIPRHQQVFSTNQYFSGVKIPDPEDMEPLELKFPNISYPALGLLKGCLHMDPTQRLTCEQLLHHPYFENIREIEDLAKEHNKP

By ΔTm is commonly meant the shift of the melting midpoint relative to a reference. Regarding `COc1ccc(CNC(=O)Nc2ccc3cc2OCCOCCNc2ccn4ncc-3c4n2)cc1` [compound 31], the ΔTm at 10 µM on STK3 (STK3A) was 4.4 °C; on DYRK2A, 1.9 °C; at DAPK3 (DAPK3A), 1.2 °C; on PCTK1A, 1.9 °C; at EPHB3A it was 0.8 °C; at CSNK1DA it was 0.1 °C. The results for the ΔTm at 10 µM on PKMYT1A and at CDKL1A were 0.3 °C and 0.6 °C, respectively.
Consider `COc1ccc(CNC(=O)Nc2ccc3cc2OCCOCCNc2ccn4ncc-3c4n2)cc1F` [compound 32], for which the ΔTm at 10 µM was 4.7 °C at STK3 (STK3A); 1.8 °C at DYRK2A; 1.2 °C at DAPK3 (DAPK3A); 2 °C on PCTK1A; 0.6 °C on EPHB3A; -0.2 °C on CSNK1DA. For the same compound, the ΔTm at 10 µM on PKMYT1A amounted to 0.4 °C; at CDKL1A, 0.5 °C.
On to `COc1cc(CNC(=O)Nc2ccc3cc2OCCOCCNc2ccn4ncc-3c4n2)ccc1F` [compound 33], for which the ΔTm at 10 µM amounted to 3.9 °C at STK3 (STK3A); 3.9 °C at DYRK2A; 2.1 °C at DAPK3 (DAPK3A); 1.7 °C at PCTK1A; 0.8 °C at EPHB3A; 0.1 °C on CSNK1DA. Moreover, the ΔTm at 10 µM at PKMYT1A came out at 0.2 °C; at CDKL1A, 0.5 °C.
Regarding `C[C@H](NC(=O)Nc1ccc2cc1OCCOCCNc1ccn3ncc-2c3n1)c1ccccc1` [compound 34], the ΔTm at 10 µM at STK3 (STK3A) is 3.6 °C; on DYRK2A, 4.3 °C; at DAPK3 (DAPK3A), 1.8 °C; on PCTK1A, 0.5 °C; at EPHB3A it was 0.5 °C; at CSNK1DA, -0.1 °C. In addition, the ΔTm at 10 µM is -0.1 °C at PKMYT1A and 0.2 °C on CDKL1A.
Consider `CN1CCN(C(=O)Nc2ccc3cc2OCCOCCNc2ccn4ncc-3c4n2)CC1` [compound 35], for which the ΔTm at 10 µM on STK3 (STK3A) turned out to be 3.3 °C; at DYRK2A, 1.8 °C; on DAPK3 (DAPK3A), 2.8 °C; on PCTK1A, 1 °C; at EPHB3A, 0.6 °C; on CSNK1DA, 0.5 °C. Besides, the figures for the ΔTm at 10 µM on PKMYT1A and on CDKL1A were 0.8 °C and -0.2 °C, respectively.

The record behind these values is article PMC12621043, “Un-LOK-ing a New Approach for Conformational Selective Targeting of STK10 (LOK)” (ACS Medicinal Chemistry Letters, 2025).
